Where “and” joins values, the source holds several entries; their conditions need not be identical. Equal values may be shown once.
Assays:
[1] = test system: L5178Y TK+/− mouse lymphoma cells; assay: Mouse Lymphoma Assay (MLA); details: for Avg. ACE / Avg. MF / Avg. RTG / Avg. SG: 4 h summary
Description: The cells were prepared in Fischer's or RPMI media supplemented with 10% heat-inactivated horse serum, penicillin-streptomycin, Lglutamine, sodium pyruvate and Pluronic F68. In the initial assay, prior to use in the test, the culture was purged of preexisting TK−/− mutations by exposure to THMG treated medium for 1 day, followed by a transfer to THG medium for 1 to 2 days. This was performed 5 to 8 days prior to testing. In the expanded assay a vial of frozen cells was thawed and used within 5 to 8 days of growth. No washing was needed because the cells were purged of preexisting TK−/− mutations by exposure to THMG treated medium for 1 day and then THG medium for 1 day prior to freezing. […] Colonies were counted using an automated colony counter or manually. After 4 or 24 hours of exposure, the cells were grown for recovery and expression for approximately 48 hours before plated in TFT cloning media. A second set of plates were prepared without TFT to assess viability of cells following treatment. […] Colonies observed on the TFT plate were defined as small or large colonies. […] (3) Of note, the metabolic activation system in this assay consisted of a rat liver homogenate (S-9 microsomal fraction), which was delivered to the test system in the presence of a core mix consisting of NADP and cofactors for NADPH-supported oxidation. The S9 was prepared using the following recipe (per treatment tube); 1 mL of 20 mg/mL S9, 32 mg of NADP, 60 mg of isocitric acid, 40 μL of calcium chloride (CaCl2) and 3.0 mL of cell cultural media. All treatments were performed in duplicate. The treatment tubes were placed in a CO2 incubator at 37±1° C. with continuous agitation.

[2] = test system: Agrin and its downstream targets; assay: Western blots of Agrin and downstream targets in pancreatic cancer cell lines; type: cell-based, human
Description: For frozen prostate cancer tissue specimens and their adjacent non-tumor tissues (if any) obtained from Roswell Park pathology network, 30-50 mg of each tissue in a 1.5 Eppendorf tube containing 500 μL of 2×SDS lysis buffer containing Tris pH 6.8+4% SDS+10% Glycerol were homogenized through ultrasound treatment for 10-15 second per time with 3-6 times until tumor tissue was lysed. After all tissues were processed, 1.5 mL tubes were centrifuged at 13,000 rom in a microcentrifuge for 1-2 min and then the supernatant in each tube was transferred into a new 1.5 mL tube for protein concentration measurement (refer to the section of “Studies with Human patient tumor specimens” for more information). Twenty to fifty μg total protein from each sample (cell lysis or tumor tissue lysis) were heated at 95° C. for 5 minutes after mixing with equal volumes of 2× SDS loading buffer. […] The membrane was then blocked in 5% skim milk in TBS-T buffer (20 mM Tris/HCl pH 7.5, 0.137 M NaCl, and 0.1% Tween 20) at room temperature for 2-3h. […] Proteins of interest were detected using Western Lightning ECL-Plus (Perkin Elmer, Waltham, MA) and visualized by various times (3-120 seconds) of exposure. Actin, tubulin and/or GAPDH were detected as the internal control to normalize total protein loading for each sample.

`CCC1(O)C(=O)OCc2c1cc1n(c2=O)Cc2cc3cc4c(cc3nc2-1)OCO4` (stereo not shown) [FL118] was tested, and the “concentrations considered unable to induce mutation” value (“concentrations considered unable” for short) ([1]; 4-hour +S9) was no more than 320 nM, the “concentrations considered positive (mutagenic/clastogenic)” value ([1]; 4-hour -S9) was greater than 100 nM and the “concentrations considered unable” value ([1]; 4-hour -S9) was no more than 32 nM. The “Average SG” value ([1]; 4 h, +S9, 0.1 uM) was 12.9, the “Day 1 Growth Cell Conc.” value ([1]; 4 h, +S9, 0.1 uM) was 6.71E+05 Cell/mL and 7.82E+05 Cell/mL and the “Day 2 Growth Cell Conc.” value ([1]; 4 h, +S9, 0.1 uM) was 1.55E+06 Cell/mL and 1.64E+06 Cell/mL. For the same compound, the “Suspension Growth (SG)” value ([1]; 4 h, +S9, 0.1 uM) was 11.4 and 14.3, the “Average SG” value ([1]; 4 h, +S9, 1 uM) was 10.7 and the “Day 1 Growth Cell Conc.” value ([1]; 4 h, +S9, 1 uM) was 7.55E+05 Cell/mL and 6.56E+05 Cell/mL. For the same compound, the “Day 2 Growth Cell Conc.” value ([1]; 4 h, +S9, 1 uM) was 1.27E+06 Cell/mL and 1.45E+06 Cell/mL, the “Suspension Growth (SG)” value ([1]; 4 h, +S9, 1 uM) was 10.5 and 10.8 and the “concentrations considered positive (mutagenic/clastogenic)” value ([1]; 4 hour +S9) was greater than 1000 nM. The “Avg. ACE” value ([1]; +S9, 0.1 uM) was 82.5%, the “Avg. MF” value ([1]; +S9, 0.1 uM) was 71 ×10^−6 and the “Avg. RTG” value ([1]; +S9, 0.1 uM) was 98.8%. The “Avg. SG” value ([1]; +S9, 0.1 uM) was 12.9, the “Avg. ACE” value ([1]; +S9, 1 uM) was 62.3% and the “Avg. MF” value ([1]; +S9, 1 uM) was 231 ×10^−6. The “Avg. RTG” value ([1]; +S9, 1 uM) was 81.5%, the “Avg. SG” value ([1]; +S9, 1 uM) was 10.7 and the “Average SG” value ([1]; 24 h, 0.001 uM) was 66.2. For the same compound, the “Suspension Growth (SG)” value ([1]; 24 h, 0.001 uM) was 55.8 and 65.5, the “Average SG” value ([1]; 24 h, 0.1 uM) was 29.1 and the “Suspension Growth (SG)” value ([1]; 24 h, 0.1 uM) was 29.0 and 29.1. The “concentrations considered positive (mutagenic/clastogenic)” value ([1]; 24 hour -S9) was no less than 100 nM, the “concentrations considered unable” value ([1]; 24 hour -S9) was no more than 32 nM and the “DDX5, Agrin, YAP1, Integrin expression and FAK phosphorylation” value ([2]; Mia Paca-2, Panc-1, BxPC-3, 10, 100, 500 nM) was “inhibits the expression of DDX5, Agrin, YAP1 and Integrin as well as the FAK phosphorylation status”. The “Agrin and YAP1 proteins” value ([2]; Panc-1 cells) was “inhibits Agrin and YAP1 proteins”.
